# Values quoted from earlier work, collected in PMC7584476, “Safety and efficacy of BAY1436032 in IDH1-mutant AML: phase I study results” (Leukemia, 2020).
# Where two headings read alike, the source gives them in different places.
# Legend:
# primary AML samples = conditions: cited from earlier work
# mIDH1 AML = tested on: mIDH1 AML; parameters: method as in PMID 29860938; conditions: cited from earlier work
SMILES,Number of colony-forming cells (primary AML samples),"Number of colony-forming cells (primary AML samples; ref MH, unpublished)",Half-life (mIDH1 AML) [h],≥grade 3 TEAE IDH DS (mIDH1 AML) [%],≥grade 3 TEAE QT prolongation (mIDH1 AML) [%],"Median overall survival (mIDH1 AML; similar populations, 95% CI 6.7–10.2) [months]"
CC(C)(O)CNc1nc(Nc2ccnc(C(F)(F)F)c2)nc(-c2cccc(C(F)(F)F)n2)n1 [enasidenib],increased,,,,,
N#Cc1ccnc(N2C(=O)CC[C@H]2C(=O)N(c2cncc(F)c2)[C@H](C(=O)NC2CC(F)(F)C2)c2ccccc2Cl)c1 [ivosidenib],,increased,72 to 138,4,8,8.8
